We go through 24 compounds from US20230062119A1, “USE OF BIOMARKERS IN IDENTIFYING PATIENTS THAT WILL BE RESPONSIVE TO TREATMENT WITH A PRMT5 INHIBITOR” (Merck Sharp & Dohme LLC, priority 2019, published 2023).

Where two headings read alike, the source gives them in different places.

The test concerns the target T1, Full-length (FL)-PRMT5-MEP50 enzyme complex (Homo sapiens, UniProt O14744).
T1 construct: Full-length (FL)-PRMT5-MEP50 enzyme complex (recombinant proteins from baculovirus-transfected Sf21 cells: FL-PRMT5; MW=73837 kDa and FL-MEP50; MW=38614); made in house; host or cells: baculovirus-transfected Sf21 insect cells
The test is described as follows: PRMT5-MEP50 Enzyme Methylation Assay. The format is biochemical. The following applies: 1.0 nM PRMT5-MEP50, 75 nM biotinylated peptide, 15 μM SAM. In outline:
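Compound was pre-incubated 60 min at 37°C with 1.0 nM enzyme and 15 μM SAM (final) in 50 mM Bicine pH 8.0, then 75 nM biotinylated H4R3(Me1) peptide was added and reacted 150 min; twenty-point 1:2 titration from 100000 nM, 1% DMSO. Formic acid quench; SAMDI mass spectrometry measured Me1-to-Me2 conversion, EC50 by 4- or 7-parameter regression.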

Where [1] appears, read: one EC50: 4 parameters single site sigmoidal model, EC50 1: first value of 7 parameters biphasic model, read-out: Enzyme Methylation Assay (EC50 or EC50 1).
Where [2] appears, read: second EC50 of 7 parameters biphasic model, read-out: Enzyme Methylation Assay (EC50 2).

T1 sequence (O14744 whole entry): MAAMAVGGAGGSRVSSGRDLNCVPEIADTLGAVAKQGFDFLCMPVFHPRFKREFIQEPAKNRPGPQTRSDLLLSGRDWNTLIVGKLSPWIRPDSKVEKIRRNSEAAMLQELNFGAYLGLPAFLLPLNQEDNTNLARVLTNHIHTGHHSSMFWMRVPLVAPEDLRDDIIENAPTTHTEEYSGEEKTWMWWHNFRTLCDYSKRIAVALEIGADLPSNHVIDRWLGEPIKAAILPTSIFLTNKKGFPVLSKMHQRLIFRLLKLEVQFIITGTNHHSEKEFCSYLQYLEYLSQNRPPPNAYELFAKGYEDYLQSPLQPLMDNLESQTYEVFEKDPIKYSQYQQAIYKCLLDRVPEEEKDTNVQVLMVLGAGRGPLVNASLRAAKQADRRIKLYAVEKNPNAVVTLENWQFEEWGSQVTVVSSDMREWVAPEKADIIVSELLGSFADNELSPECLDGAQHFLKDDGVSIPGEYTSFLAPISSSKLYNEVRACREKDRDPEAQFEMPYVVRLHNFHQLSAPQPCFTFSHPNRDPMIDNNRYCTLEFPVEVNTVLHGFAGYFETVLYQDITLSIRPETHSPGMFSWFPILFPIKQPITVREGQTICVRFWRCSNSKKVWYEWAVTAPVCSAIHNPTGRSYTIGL
T1 sequence (Q9BQA1 whole entry partner): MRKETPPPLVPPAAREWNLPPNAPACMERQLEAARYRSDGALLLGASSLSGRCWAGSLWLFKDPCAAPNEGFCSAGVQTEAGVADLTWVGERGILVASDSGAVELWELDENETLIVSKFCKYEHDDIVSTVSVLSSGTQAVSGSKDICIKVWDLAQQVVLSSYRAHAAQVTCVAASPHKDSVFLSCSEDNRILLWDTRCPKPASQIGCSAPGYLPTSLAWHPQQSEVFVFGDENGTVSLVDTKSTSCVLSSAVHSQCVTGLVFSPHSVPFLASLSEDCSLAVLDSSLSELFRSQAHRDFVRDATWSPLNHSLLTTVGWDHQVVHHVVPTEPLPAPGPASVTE

For `C[C@]1(COc2ccc3ccc(N)nc3c2)C[C@@H](n2ccc3c(N)ncnc32)[C@H](O)[C@@H]1O` [Example 101, (1S,2R,3R,5R)-5-(4-amino-7H-pyrrolo[2,3-d]pyrimidin-7-yl)-3-(((2-aminoquinolin-7-yl)oxy)methyl)-3-methylcyclopentane-1,2-diol], under setting [1], the EC50 – broadly, the concentration at which the effect is half-maximal – came out at 0.3 nM.

With `C[C@@]1(O)[C@@H](CCc2ccc3cc(Br)c(N)nc3c2)C[C@@H](n2ccc3c(N)ncnc32)[C@@H]1O` [Example 103, (1R,2S,3R,5S)-5-(2-(2-amino-3-bromoquinolin-7-yl)ethyl)-3-(4-amino-7H-pyrrolo[2,3-d]pyrimidin-7-yl)-1-methylcyclopentane-1,2-diol], the half-maximal effective concentration (EC50) under setting [1] is 0.4 nM and the EC50 under setting [2] was found to be 40.7 nM.

Turning to `Nc1ccc2ccc(O[C@H]3CC[C@@]4(O)[C@@H]3O[C@@H](n3ccc5c(N)ncnc53)[C@@H]4O)cc2n1` [Example 104, (2R,3R,3aS,6S,6aR)-2-(4-amino-7H-pyrrolo[2,3-d]pyrimidin-7-yl)-6-((2-aminoquinolin-7-yl)oxy)hexahydro-2H-cyclopenta[b]furan-3,3a-diol], the half-maximal effective concentration (EC50) under setting [1] worked out at 3.8 nM.

Consider `C[C@@]1(O)[C@@H](COc2ccc3ccc(N)nc3c2)C[C@@H](n2ccc3cncnc32)[C@@H]1O` [Example 105, (1R,2S,3R,5R)-5-(((2-aminoquinolin-7-yl)oxy)methyl)-1-methyl-3-(7H-pyrrolo[2,3-d]pyrimidin-7-yl)cyclopentane-1,2-diol], for which the EC50 came to 0.3 nM under setting [1] and 21.9 nM under setting [2].

Consider `Cc1cc2ccc(OC[C@H]3C[C@@H](n4ccc5c(C)ncnc54)[C@H](O)[C@]3(C)O)cc2nc1N` [Example 106, (1R,2S,3R,5R)-5-(((2-amino-3-methylquinolin-7-yl)oxy)methyl)-1-methyl-3-(4-methyl-7H-pyrrolo[2,3-d]pyrimidin-7-yl)cyclopentane-1,2-diol], for which the EC50 under setting [1] was 0.3 nM.

`Cc1ncnc2c1ccn2[C@@H]1O[C@@H]2[C@H](Cc3ccc4ccc(N)nc4c3)CC[C@]2(O)[C@H]1O` [Example 107, (2R,3R,3aS,6S,6aR)-6-((2-aminoquinolin-7-yl)methyl)-2-(4-methyl-7H-pyrrolo[2,3-d]pyrimidin-7-yl)hexahydro-2H-cyclopenta[b]furan-3,3a-diol]: the EC50 under setting [1] stood at 0.2 nM.

As for `Nc1nc2cc(C[C@@H]3CC[C@@]4(O)[C@@H]3O[C@@H](n3cc(F)c5c(N)ncnc53)[C@@H]4O)ccc2cc1Br` [Example 108, (2R,3R,3aS,6S,6aR)-6-((2-amino-3-bromoquinolin-7-yl)methyl)-2-(4-amino-5-fluoro-7H-pyrrolo[2,3-d]pyrimidin-7-yl)hexahydro-2H-cyclopenta[b]furan-3,3a-diol], the EC50 under setting [1] was 0.2 nM.

Consider `Cc1ncnc2c1ccn2[C@@H]1C[C@](C)(CCc2ccc3cc(Br)c(N)nc3c2)[C@@H](O)[C@H]1O` [Example 109, (1S,2R,3S,5R)-3-(2-(2-amino-3-bromoquinolin-7-yl)ethyl)-3-methyl-5-(4-methyl-7H-pyrrolo[2,3-d]pyrimidin-7-yl)cyclopentane-1,2-diol], for which the concentration for a half-maximal effect (EC50) under setting [1] was 0.7 nM.

For `Cc1ncnc2c1ccn2[C@@H]1C[C@](C)(CCc2ccc3cc4c(nc3c2)NCC4)[C@@H](O)[C@H]1O` [Example 110, (1S,2R,3S,5R)-3-(2-(2,3-dihydro-1H-pyrrolo[2,3-b]quinolin-7-yl)ethyl)-3-methyl-5-(4-methyl-7H-pyrrolo[2,3-d]pyrimidin-7-yl)cyclopentane-1,2-diol], the EC50 under setting [1] is 0.9 nM.

As to `C[C@]1(COc2ccc3cc(Br)c(N)nc3c2)C[C@@H](n2ccc3c(N)ncnc32)[C@H](O)[C@]1(C)O` [Example 111, (1R,2S,3R,5R)-5-(((2-amino-3-bromoquinolin-7-yl)oxy)methyl)-3-(4-amino-7H-pyrrolo[2,3-d]pyrimidin-7-yl)-1,5-dimethylcyclopentane-1,2-diol], the EC50 stood at 30.6 nM under setting [1] and 2660 nM under setting [2].

`Cc1ncnc2c1ccn2[C@@H]1O[C@@H]2[C@@H](Oc3ccc4cc(Cl)c(N)nc4c3)CC[C@]2(O)[C@H]1O` [Example 112, (2R,3R,3aS,6S,6aR)-6-((2-amino-3-chloroquinolin-7-yl)oxy)-2-(4-methyl-7H-pyrrolo[2,3-d]pyrimidin-7-yl)hexahydro-2H-cyclopenta[b]furan-3,3a-diol]: under setting [1], the EC50 came to 0.6 nM.

In the case of `Cc1ncnc2c1ccn2[C@@H]1O[C@@H]2[C@@H](Oc3ccc4ccc(N)nc4c3)CC[C@]2(O)[C@H]1O` [Example 113, (2R,3R,3aS,6S,6aR)-6-((2-aminoquinolin-7-yl)oxy)-2-(4-methyl-7H-pyrrolo[2,3-d]pyrimidin-7-Yl)hexahydro-2H-cyclopenta[b]furan-3,3a-diol], under setting [1], the half-maximal effective concentration (EC50) is 1.1 nM.

As to `Cc1nc(N)nc2c1ccn2[C@@H]1O[C@@H]2[C@@H](Oc3ccc4cc(Br)c(N)nc4c3)CC[C@]2(O)[C@H]1O` [Example 114, (2R,3R,3aS,6S,6aR)-6-((2-amino-3-bromoquinolin-7-yl)oxy)-2-(2-amino-4-methyl-7H-pyrrolo[2,3-d]pyrimidin-7-yl)hexahydro-3aH-cyclopenta[b]furan-3,3a-diol], under setting [1], the EC50 came out at 1.4 nM.

For `Cc1ncnc2c1ccn2[C@@H]1O[C@@H]2[C@@H](Oc3ccc4cc(C(F)F)c(N)nc4c3)CC[C@]2(O)[C@H]1O` [Example 115, (2R,3R,3aS,6S,6aR)-6-((2-amino-3-(difluoromethyl)quinolin-7-yl)oxy)-2-(4-methyl-7H-pyrrolo[2,3-d]pyrimidin-7-yl)hexahydro-3aH-cyclopenta[b]furan-3,3a-diol], the half-maximal effective concentration (EC50) came to 0.4 nM under setting [1] and 255 nM under setting [2].

Turning to `C[C@@]1(CCc2ccc3cc(F)c(N)nc3c2)C[C@@H](n2ccc3c(N)ncnc32)[C@H](O)[C@@H]1O` [Example 116, (1S,2R,3R,5R)-3-(2-(2-amino-3-fluoroquinolin-7-yl)ethyl)-5-(4-amino-7H-pyrrolo[2,3-d]pyrimidin-7-yl)-3-methylcyclopentane-1,2-diol], the EC50 is, setting by setting: under setting [1], 2.4 nM; under setting [2], 661 nM.

With `C[C@]1(CCc2ccc3cc(Br)c(N)nc3c2)C[C@@H](n2ccc3c(N)ncnc32)[C@H](O)[C@]1(C)O` [Example 117, (1R,2S,3R,5S)-5-(2-(2-amino-3-bromoquinolin-7-yl)ethyl)-3-(4-amino-7H-pyrrolo[2,3-d]pyrimidin-7-yl)-1,5-dimethylcyclopentane-1,2-diol], the EC50 under setting [1] worked out at 1 nM.

For `C[C@]1(O)[C@@H](O)[C@H](n2ccc3c(N)ncnc32)C[C@]1(O)CCc1ccc2cc(Br)c(N)nc2c1` [Example 118, (1R,2S,3S,4R)-1-(2-(2-amino-3-bromoquinolin-7-yl)ethyl)-4-(4-amino-7H-pyrrolo[2,3-d]pyrimidin-7-yl)-2-methylcyclopentane-1,2,3-triol], the concentration giving a half-maximal response (EC50) by setting is: under setting [1], 3.2 nM; under setting [2], 1590 nM.

Turning to `Nc1nc2cc(O[C@H]3CC[C@@]4(O)[C@@H]3C[C@@H](n3ccc5c(N)ncnc53)[C@@H]4O)ccc2cc1Br` [Example 119, (1S,2R,3aR,4S,6aR)-4-((2-amino-3-bromoquinolin-7-yl)oxy)-2-(4-amino-7H-pyrrolo[2,3-d]pyrimidin-7-yl)hexahydropentalene-1,6a(1H)-diol 2,2,2-trifluoroacetate], the EC50 was determined as 1 nM under setting [1] and 116 nM under setting [2].

Take `Cc1ncnc2c1ccn2[C@@H]1O[C@@H]2[C@@H](Nc3ccc4cc(F)c(N)nc4c3)CC[C@]2(O)[C@H]1O` [Example 120, (2R,3R,3aS,6S,6aR)-6-((2-amino-3-fluoroquinolin-7-yl)amino)-2-(4-methyl-7H-pyrrolo[2,3-d]pyrimidin-7-yl)hexahydro-3aH-cyclopenta[b]furan-3,3a-diol]: under setting [1], the concentration for a half-maximal effect (EC50) is 0.6 nM.

As to `C[C@]12O[C@@H](n3ccc4c(N)ncnc43)[C@H](O)[C@@]1(O)CC[C@H]2Cc1ccc2cc(F)c(N)nc2c1` [Example 121, (2R,3R,3aS,6S,6aR)-6-((2-amino-3-fluoroquinolin-7-yl)methyl)-2-(4-amino-7H-pyrrolo[2,3-d]pyrimidin-7-yl)-6a-methylhexahydro-3aH-cyclopenta[b]furan-3,3a-diol], the EC50 under setting [1] amounted to 0.4 nM.

Consider `Cc1ncnc2c1ccn2[C@@H]1O[C@@H]2[C@H](Cc3ccc4cc(Cl)c(N)nc4c3)CC[C@]2(O)[C@H]1O` [Example 122, (2R,3R,3aS,6S,6aR)-6-((2-amino-3-chloroquinolin-7-yl)methyl)-2-(4-methyl-7H-pyrrolo[2,3-d]pyrimidin-7-yl)hexahydro-3aH-cyclopenta[b]furan-3,3a-diol], for which the concentration for a half-maximal effect (EC50) under setting [1] is 0.6 nM.

In the case of `Cc1ncnc2c1ccn2[C@@H]1O[C@@H]2[C@H](Cc3ccc4cc(F)c(N)nc4c3)CC[C@]2(O)[C@H]1O` [Example 123, (2R,3R,3aS,6S,6aR)-6-((2-amino-3-fluoroquinolin-7-yl)methyl)-2-(4-methyl-7H-pyrrolo[2,3-d]pyrimidin-7-yl)hexahydro-3aH-cyclopenta[b]furan-3,3a-diol], under setting [1], the EC50 was found to be 1 nM.

For the compound `Nc1nc2cc(C[C@@H]3CC[C@@]4(O)[C@@H]3O[C@@H](n3ccc5c(N)ncnc53)[C@@H]4O)ccc2cc1F` [Example 124, (2R,3R,3aS,6S,6aR)-6-((2-amino-3-fluoroquinolin-7-yl)methyl)-2-(4-amino-7H-pyrrolo[2,3-d]pyrimidin-7-yl)hexahydro-3aH-cyclopenta[b]furan-3,3a-diol], the EC50 under setting [1] was found to be 0.3 nM.

Consider `Cc1cc2ccc(C[C@@H]3CC[C@@]4(O)[C@@H]3O[C@@H](n3ccc5c(N)ncnc53)[C@@H]4O)cc2nc1N` [Example 125, (2R,3R,3aS,6S,6aR)-6-((2-amino-3-methylquinolin-7-yl)methyl)-2-(4-amino-7H-pyrrolo[2,3-d]pyrimidin-7-yl)hexahydro-3aH-cyclopenta[b]furan-3,3a-diol], for which, under setting [1], the concentration for a half-maximal effect (EC50) worked out at 0.8 nM.
